Test results: ChEMBL document CHEMBL1201862, “PubChem BioAssay data set” (2004)
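96-well plates; 48 h exposure; 5 concentrations. Endpoints by linear interpolation between flanking doses. Not reached: highest tested concentration assigned. GI50: concentration for 50% inhibition of growth.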 Activity calls are given as the source filed them. Rule as the data show it: active = GI50 up to about 1.1 µM and inactive = higher.

Assays:
Experiment in all cases: growth of human tumour cells (NCI), 48 h
NCI-H460 = tested on: NCI-H460
SNB-19 = tested on: SNB-19
OVCAR-3 = tested on: OVCAR-3
HOP-92 = tested on: HOP-92
A549 = tested on: A549
SK-MEL-28 = tested on: SK-MEL-28
OVCAR-8 = tested on: OVCAR-8
HT-29 = tested on: HT-29
NCI-H522 = tested on: NCI-H522
TK-10 = tested on: TK-10
NCI-H226 = tested on: NCI-H226
DU-145 = tested on: DU-145
MOLT-4 = tested on: MOLT-4
NCI/ADR-RES = tested on: NCI/ADR-RES
Malme-3M = tested on: Malme-3M
EKVX = tested on: EKVX
SW-620 = tested on: SW-620
CAKI-1 = tested on: CAKI-1
SN12C = tested on: SN12C
SF-268 = tested on: SF-268

Measured: GI50

CC(=O)Nc1cc2c3c(c1)CCCN3CCC2
inactive: NCI-H460 > 100 µM | SNB-19 > 100 µM | OVCAR-3 > 100 µM | HOP-92 > 100 µM | A549 > 100 µM | SK-MEL-28 > 100 µM | OVCAR-8 > 100 µM | HT-29 > 100 µM | NCI-H522 > 100 µM | TK-10 > 100 µM | NCI-H226 > 100 µM | DU-145 > 100 µM | MOLT-4 > 100 µM | NCI/ADR-RES > 100 µM | Malme-3M > 100 µM | EKVX 64.9 µM | SW-620 > 100 µM | CAKI-1 > 100 µM

O=c1c2cc([N+](=O)[O-])ccc2nc2n1CCCCC2
inactive: NCI-H460 > 100 µM | OVCAR-3 > 100 µM | HOP-92 > 100 µM | A549 > 100 µM | SK-MEL-28 > 100 µM | OVCAR-8 > 100 µM | HT-29 > 100 µM | SN12C > 100 µM | NCI-H522 > 100 µM | SF-268 > 100 µM | TK-10 > 100 µM | NCI-H226 > 100 µM | DU-145 > 100 µM | MOLT-4 > 100 µM | NCI/ADR-RES > 100 µM | Malme-3M > 100 µM | EKVX 66.4 µM | SW-620 > 100 µM | CAKI-1 79.6 µM

CC(Oc1ccccc1Cl)C(=O)NN1C(=O)CSC1c1ccccc1 (stereo not given)
inactive: NCI-H460 > 100 µM | SNB-19 > 100 µM | OVCAR-3 > 100 µM | HOP-92 57.3 µM | A549 62.7 µM | SK-MEL-28 > 100 µM | OVCAR-8 > 100 µM | HT-29 > 100 µM | SN12C 74.6 µM | NCI-H522 64.6 µM | SF-268 > 100 µM | TK-10 > 100 µM | NCI-H226 > 100 µM | DU-145 > 100 µM | MOLT-4 29.8 µM | NCI/ADR-RES > 100 µM | EKVX > 100 µM | SW-620 > 100 µM | CAKI-1 > 100 µM

Cc1ccc(-c2cc(=O)c(=O)[nH][nH]2)cc1
inactive: NCI-H460 > 100 µM | OVCAR-3 > 100 µM | HOP-92 > 100 µM | A549 > 100 µM | SK-MEL-28 > 100 µM | OVCAR-8 > 100 µM | HT-29 > 100 µM | SN12C > 100 µM | NCI-H522 36.9 µM | SF-268 > 100 µM | TK-10 > 100 µM | NCI-H226 > 100 µM | DU-145 > 100 µM | MOLT-4 > 100 µM | NCI/ADR-RES > 100 µM | EKVX > 100 µM | SW-620 > 100 µM | CAKI-1 > 100 µM

O=C1OCc2c1cc1cc3c(cc1c2-c1ccc2c(c1)OCO2)OCO3.O=C1OCc2cc3cc4c(cc3c(-c3ccc5c(c3)OCO5)c21)OCO4
inactive: NCI-H460 5.79 µM | SNB-19 30 µM | OVCAR-3 4 µM | HOP-92 13.8 µM | SK-MEL-28 45.4 µM | OVCAR-8 13.5 µM | HT-29 7.23 µM | SN12C 15 µM | TK-10 14.4 µM | NCI-H226 9.77 µM | DU-145 11.3 µM | MOLT-4 2.31 µM | NCI/ADR-RES 4.68 µM | Malme-3M 37.2 µM | SW-620 4.51 µM | CAKI-1 11.8 µM

COc1ccc(NC(C)=O)cc1N1C(=O)/C(=C\c2cc(OC)c(OC)c(OC)c2)S(=O)(=O)C1c1ccccc1 (stereo not given)
inactive: NCI-H460 58.9 µM | SNB-19 > 100 µM | OVCAR-3 60.3 µM | HOP-92 51.3 µM | A549 61.7 µM | SK-MEL-28 39.3 µM | OVCAR-8 59.4 µM | HT-29 47.2 µM | SN12C 50.8 µM | NCI-H522 45.5 µM | TK-10 > 100 µM | NCI-H226 26.5 µM | DU-145 75 µM | MOLT-4 22 µM | NCI/ADR-RES 73.6 µM | Malme-3M 78.3 µM | EKVX 23.5 µM | SW-620 50.4 µM | CAKI-1 > 100 µM

C=C1C[C@@H]2CC[C@@]34CC5O[C@H]6C(O[C@H]7CC[C@H](CC(=O)O[C@@H]8[C@@H](C)[C@@H]9O[C@@H]%10C[C@]%11(C[C@@H]%12O[C@]%13(C[C@H](C)[C@@H]%14O[C@@H]%15CC(C(COC(C)=O)OC(C)=O)O[C@@H]%15C[C@@H]%14O%13)C[C@H](C)[C@@H]%12O%11)O[C@@H]%10C[C@@H]9O[C@H]8CC8O[C@@H](CC[C@@H]1O2)C[C@@H](C)C8(O)CO)O[C@@H]7[C@@H]6O3)[C@H]5O4 (stereo not given in full)
active: NCI-H460 0.258 µM | SNB-19 0.701 µM | OVCAR-3 0.431 µM | HOP-92 > 1 µM | A549 0.413 µM | SK-MEL-28 > 1 µM | OVCAR-8 0.668 µM | SN12C > 0.838 µM | NCI-H522 0.137 µM | SF-268 0.455 µM | TK-10 > 0.36 µM | NCI-H226 0.45 µM | DU-145 0.375 µM | MOLT-4 > 0.548 µM | NCI/ADR-RES > 1 µM | EKVX > 0.923 µM | SW-620 0.6 µM | CAKI-1 0.652 µM

O=C(COc1ccc(OCC(=O)NNC2=NC(c3cc(F)c(Cl)cc3Cl)CS2)c(Cl)c1)NNC1=NC(c2cc(F)c(Cl)cc2Cl)CS1 (stereo not given)
inactive: NCI-H460 29.9 µM | SNB-19 42.5 µM | HOP-92 21.6 µM | A549 14.3 µM | SK-MEL-28 29.5 µM | OVCAR-8 20.8 µM | HT-29 25.6 µM | SN12C 20.7 µM | NCI-H522 14.2 µM | TK-10 25.8 µM | NCI-H226 19.1 µM | DU-145 22.8 µM | MOLT-4 26.2 µM | NCI/ADR-RES 44.8 µM | Malme-3M > 100 µM | EKVX 20.8 µM | SW-620 30.6 µM

CCc1cc(Cc2cc(CC)c(NC(=O)C(=O)CC(=O)c3sc(-c4cccnc4)nc3C)c(CC)c2)cc(CC)c1NC(=O)C(=O)CC(=O)c1sc(-c2cccnc2)nc1C
inactive: NCI-H460 > 100 µM | SNB-19 > 100 µM | OVCAR-3 > 100 µM | HOP-92 > 100 µM | A549 > 100 µM | SK-MEL-28 > 100 µM | OVCAR-8 > 100 µM | HT-29 > 100 µM | SN12C > 100 µM | NCI-H522 > 100 µM | SF-268 > 100 µM | NCI-H226 > 100 µM | DU-145 > 100 µM | MOLT-4 > 100 µM | NCI/ADR-RES > 100 µM | Malme-3M > 100 µM | EKVX > 100 µM | SW-620 > 100 µM | CAKI-1 > 10 µM

O=C1NC(=S)NC(=O)C1=Cc1ccc(-c2ccccc2)cc1
inactive: NCI-H460 > 100 µM | SNB-19 > 100 µM | OVCAR-3 > 100 µM | HOP-92 > 100 µM | A549 > 100 µM | OVCAR-8 49.8 µM | HT-29 > 100 µM | SN12C > 100 µM | SF-268 > 100 µM | TK-10 > 100 µM | NCI-H226 > 100 µM | DU-145 > 100 µM | MOLT-4 24.7 µM | NCI/ADR-RES 27.9 µM | Malme-3M > 100 µM | EKVX > 100 µM | SW-620 > 100 µM | CAKI-1 > 100 µM

O=C1NC2NC3NC(=O)NC3NC2N1 (stereo not given)
inactive: SNB-19 > 100 µM | OVCAR-3 > 100 µM | HOP-92 > 100 µM | A549 > 100 µM | SK-MEL-28 > 100 µM | OVCAR-8 > 100 µM | HT-29 > 100 µM | SN12C > 100 µM | NCI-H522 > 100 µM | NCI-H226 > 100 µM | DU-145 > 100 µM | MOLT-4 > 100 µM | NCI/ADR-RES > 100 µM | Malme-3M > 100 µM | EKVX > 100 µM | SW-620 > 100 µM | CAKI-1 > 100 µM

CN1C(=O)C2(C)SC1(c1ccccc1)C1C(=O)N(c3ccccc3)C(=O)C12 (stereo not given)
inactive: SNB-19 > 100 µM | OVCAR-3 > 100 µM | HOP-92 36.6 µM | A549 49.8 µM | SK-MEL-28 > 100 µM | OVCAR-8 > 100 µM | HT-29 76.2 µM | SN12C > 100 µM | NCI-H522 96.4 µM | SF-268 > 100 µM | TK-10 57.4 µM | NCI-H226 60.4 µM | DU-145 > 100 µM | MOLT-4 40.9 µM | NCI/ADR-RES 38.6 µM | Malme-3M > 100 µM | EKVX 98.9 µM | SW-620 > 100 µM | CAKI-1 > 100 µM

O=C1/C(=C/c2ccc(Cl)cc2)Sc2scc(-c3cccc([N+](=O)[O-])c3)[n+]21
inactive: NCI-H460 4.53 µM | SNB-19 15.6 µM | OVCAR-3 8.09 µM | HOP-92 2.17 µM | A549 13.6 µM | SK-MEL-28 2.81 µM | OVCAR-8 7.55 µM | HT-29 5.65 µM | SN12C 2.77 µM | SF-268 2.95 µM | TK-10 2.13 µM | NCI-H226 29.8 µM | DU-145 7.11 µM | MOLT-4 2.04 µM | NCI/ADR-RES 2.37 µM | EKVX 4.18 µM | SW-620 1.76 µM | CAKI-1 3.01 µM
active: NCI-H522 0.44 µM

Cn1c2ccccc2c2c3c(c4c5ccccc5n(C)c4c21)C(=O)c1ccccc1C3=O
inactive: NCI-H460 64.1 µM | SNB-19 22.8 µM | OVCAR-3 41.8 µM | HOP-92 53.3 µM | A549 59.4 µM | SK-MEL-28 > 100 µM | OVCAR-8 40.1 µM | HT-29 > 100 µM | SN12C 61.2 µM | NCI-H522 18.9 µM | TK-10 24.3 µM | NCI-H226 > 100 µM | DU-145 > 100 µM | MOLT-4 > 100 µM | NCI/ADR-RES 61.1 µM | Malme-3M 29.5 µM | EKVX 44.9 µM | SW-620 79.1 µM | CAKI-1 33.9 µM
